How the values were obtained:
Format in all cases: in vivo
[1] = system: Blumeria graminis f. Sp. tritici (Erysiphe graminis f. sp. tritici); test: Blumeria graminis f. sp. tritici / wheat / leaf disc preventative (powdery mildew on wheat); conditions: foliar, wheat leaf segments cv. Kanzler, inoculated 1 day after application, assessed 6-8 days after application, compared to untreated, read-out: disease control
Experimental: Blumeria graminis f. Sp. tritici (Erysiphe graminis f. sp. tritici)/Wheat/Leaf Disc Preventative (Powdery Mildew on Wheat) Wheat leaf segments cv. Kanzler were placed on agar in a multiwell plate (24-well format) and sprayed with the formulated test compound diluted in water. The leaf disks were inoculated by shaking powdery mildew infected plants above the test plates 1 day after application. The inoculated leaf disks were incubated at 20° C. and 60% rh under a light regime of 24 h darkness followed by 12 h light/12 h darkness in a climate chamber and the activity of a compound was assessed as percent disease control compared to untreated when an appropriate level of disease damage appears on untreated check leaf segments (6-8 days after application). The following compounds gave at 200 ppm give at least 80% disease control in this test when compared to untreated control leaf disks under the same conditions, which show extensive disease development: […]

[2] = system: Puccinia recondita f. sp. tritici; test: Puccinia recondita f. sp. tritici / wheat / leaf disc preventative (brown rust); conditions: foliar, 168 h, wheat leaf segments cv. Kanzler, inoculated 1 day after application, assessed 7-9 days after application, compared to untreated, read-out: disease control
Experimental: Puccinia recondita f. sp. tritici/Wheat/Leaf Disc Preventative (Brown Rust) Wheat leaf segments cv. Kanzler were placed on agar in multiwell plates (24-well format) and sprayed with the formulated test compound diluted in water. The leaf disks were inoculated with a spore suspension of the fungus 1 day after application. The inoculated leaf segments were incubated at 19° C. and 75% rh under a light regime of 12 h light/12 h darkness in a climate cabinet and the activity of a compound was assessed as percent disease control compared to untreated when an appropriate level of disease damage appears in untreated check leaf segments (7-9 days after application). The following compounds gave at 200 ppm gave at least 80% disease control in this test when compared to untreated control leaf disks under the same conditions, which show extensive disease development: […]

Phakopsora pachyrhizi = Phakopsora pachyrhizi on soybean, preventive treatment; conditions: 264 h, 1 day preventive, triazole tolerant soybean rust strain, evaluated 11 days after application, compared to untreated, read-out: disease control
Experimental: Phakopsora pachyrhizi on Soybean, Preventive Treatment
The compound activity was tested under 1 day preventive conditions. Soybean plants with a fully enfolded first trifoliate leaf were sprayed with a track sprayer and 50 l/ha spray volume with the test compounds, either solo or in tankmix as shown in the table below. 1 day after application leaf discs were cut from the first trifoliate leaf and placed in multiwell plates on water-agar. 5 leaf discs per treatment where infested with spores of a triazole tolerant soybean rust strain. The multiwell plates where sealed and placed in an incubator 48 h in darkness and 12 h light/dark cycle afterwards. Rust infestation on leaf discs was evaluated visually 11 days after application and average activity calculated in relation to disease severity on untreated check leaf discs.
The following compounds gave at 200 ppm gave at least 80% disease control in this test when compared to untreated control leaf disks under the same conditions, which show extensive disease development: […]

[3] = system: Puccinia recondita f. sp. tritici; test: Puccinia recondita f. sp. tritici / wheat / leaf disc curative (brown rust); conditions: foliar, wheat leaf segments cv. Kanzler, compound applied 1 day after inoculation, assessed 6-8 days after application, compared to untreated, read-out: disease control
Experimental: Puccinia recondita f. sp. tritici/Wheat/Leaf Disc Curative (Brown Rust) Wheat leaf segments cv. Kanzler are placed on agar in multiwell plates (24-well format). The leaf segments are inoculated with a spore suspension of the fungus. Plates were stored in darkness at 19° C. and 75% rh. The formulated test compound diluted in water was applied 1 day after inoculation. The leaf segments were incubated at 19° C. and 75% rh under a light regime of 12 h light/12 h darkness in a climate cabinet and the activity of a compound was assessed as percent disease control compared to untreated when an appropriate level of disease damage appears in untreated check leaf segments (6-8 days after application). The following compounds gave at 200 ppm gave at least 80% disease control in this test when compared to untreated control leaf disks under the same conditions, which show extensive disease development: […]

Measured: pest or weed control at 200 ppm

CCCOCC(C)Oc1nc(C)c(N=CN2CCC2)cc1Br (stereo not drawn) [Q.030, 1-(azetidin-1-yl)-N-[5-bromo-2-methyl-6-(1-methyl-2-propoxy-ethoxy)-3-pyridyl]methanimine]
≥ 80%: all assays above

CCCOCC(C)Oc1nc(C)c(N=CN(C)CC)cc1C (stereo not drawn) [Q.011, N′-[2,5-dimethyl-6-(1-methyl-2-propoxy-ethoxy)-3-pyridyl]-N-ethyl-N-methyl-formamidine]
≥ 80%: all assays above

CCCOCC(C)Oc1nc(C)c(N=CN(C)C2CC2)cc1Br (stereo not drawn) [Q.029, N′-[5-bromo-2-methyl-6-(1-methyl-2-propoxy-ethoxy)-3-pyridyl]-N-cyclopropyl-N-methyl-formamidine]
≥ 80%: all assays above
